Assay results from patent publication US20210324359A1, “USE OF GRAM-NEGATIVE LYSIN-ANTIMICROBIAL PEPTIDE (AMP) POLYPEPTIDE CONSTRUCTS IN TREATING ENDOCARDITIS” (priority 2020, published 2021).

Assays:
[1] = system: carbapenem-resistant P. aeruginosa strains; test: Resensitization of carbapenem-resistant strains, combinations with imipenem or meropenem (Tables 18-22); format: cell-based, Pseudomonas aeruginosa
Method: Such resensitization may be determined by combining the present lysins or lysin-AMP polypeptide constructs with an antibiotic in a checkerboard assay as described herein. Antibiotic-resistant bacteria, such as carbapenem-resistant P. aeruginosa, are added to the lysin or lysin-AMP polypeptide construct combination. […] See Clinical and Laboratory Standards Institute (CLSI), CLSI. […] M100 Performance Standards for Antimicrobial Susceptibility Testing; 29th Edition. Clinical and Laboratory Standards Institute, Wayne, Pa., which is herein incorporated by reference in its entirety.
Up to seven carbapenem-resistant isolates were assessed. […] See Clinical and Laboratory Standards Institute (CLSI), CLSI. […] M100 Performance Standards for Antimicrobial Susceptibility Testing; 29th Edition. Clinical and Laboratory Standards Institute, Wayne, Pa.

[2] = system: P. aeruginosa strain WC-453; test: Time-kill assay in HEPES or CAA with 25% human serum (Tables 7, 8); format: cell-based, Pseudomonas aeruginosa; conditions: lysin 10 μg/ml, WC-453
Method: Exponential phase bacteria were then pelleted and resuspended in 1/5 culture volume of 25 mM HEPES, pH 7.4 before a final adjustment to an optical density corresponding to a McFarland value of 0.5. […] All treatments were incubated at 37° C. with aeration. At time points before the addition of lysin (or buffer control) and at 1 hour and 3 hours intervals thereafter, culture samples were removed for quantitative plating on CAA agar plates.

[3] = in combination with GN121, isolate PA19
[4] = in combination with GN121, isolate PA20
[5] = in combination with GN121, isolate PA21
[6] = in combination with GN121, isolate PA22
[7] = in combination with GN121, isolate PA23
[8] = in combination with GN121, isolate PA24
[9] = in combination with GN123, isolate PA19
[10] = in combination with GN123, isolate PA20
[11] = in combination with GN123, isolate PA21
[12] = in combination with GN123, isolate PA22
[13] = in combination with GN123, isolate PA23
[14] = in combination with GN123, isolate PA24
[15] = in combination with GN123, isolate WC-452

**Q.** Which results are given for `C[C@@H](O)[C@H]1C(=O)N2C(C(=O)O)=C(SCCN=CN)C[C@H]12` [Imipenem, imipenem, reference compound]?
**A.** antibiotic MIC, Combination [1, 3]: 1 µg/mL; carbapenem susceptibility class, Combination [1, 3]: (S) ((S) = sensitive); antibiotic MIC, Combination [1, 4]: 0.5 µg/mL; carbapenem susceptibility class, Combination [1, 4]: (S) ((S) = sensitive); antibiotic MIC, Combination [1, 5]: 1 µg/mL; carbapenem susceptibility class, Combination [1, 5]: (S) ((S) = sensitive); antibiotic MIC, Combination [1, 6]: 2 µg/mL; carbapenem susceptibility class, Combination [1, 6]: (S) ((S) = sensitive); antibiotic MIC, Combination [1, 7]: 0.125 µg/mL; carbapenem susceptibility class, Combination [1, 7]: (S) ((S) = sensitive); antibiotic MIC, Combination [1, 8]: 1 µg/mL; carbapenem susceptibility class, Combination [1, 8]: (S) ((S) = sensitive); antibiotic MIC, Combination [1, 9]: 0.5 µg/mL; carbapenem susceptibility class, Combination [1, 9]: (S) ((S) = sensitive); antibiotic MIC, Combination [1, 10]: 1 µg/mL; carbapenem susceptibility class, Combination [1, 10]: (S) ((S) = sensitive); antibiotic MIC, Combination [1, 11]: 0.5 µg/mL; carbapenem susceptibility class, Combination [1, 11]: (S) ((S) = sensitive); antibiotic MIC, Combination [1, 12]: 2 µg/mL; carbapenem susceptibility class, Combination [1, 12]: (S) ((S) = sensitive); antibiotic MIC, Combination [1, 13]: 0.25 µg/mL; carbapenem susceptibility class, Combination [1, 13]: (S) ((S) = sensitive); antibiotic MIC, Combination [1, 14]: 2 µg/mL; carbapenem susceptibility class, Combination [1, 14]: (S) ((S) = sensitive); antibiotic MIC, Combination [1, 15]: 1 µg/mL; carbapenem susceptibility class, Combination [1, 15]: (S) ((S) = sensitive); carbapenem susceptibility class, Combination ([1]; in combination with GN351, vs. WC-452): (S) ((S) = sensitive); carbapenem susceptibility class, Combination ([1]; in combination with GN370, vs. WC-452): (S) ((S) = sensitive); carbapenem susceptibility class, Combination ([1]; in combination with GN428, vs. WC-452): (S) ((S) = sensitive); carbapenem susceptibility class, antibiotic Alone ([1]; isolate PA19): R ((R) = resistant); carbapenem susceptibility class, antibiotic Alone ([1]; isolate PA20): R ((R) = resistant); carbapenem susceptibility class, antibiotic Alone ([1]; isolate PA21): R ((R) = resistant); carbapenem susceptibility class, antibiotic Alone ([1]; isolate PA22): R ((R) = resistant); carbapenem susceptibility class, antibiotic Alone ([1]; isolate PA23): R ((R) = resistant); carbapenem susceptibility class, antibiotic Alone ([1]; isolate PA24): R ((R) = resistant); carbapenem susceptibility class, antibiotic Alone ([1]; isolate WC-452): R ((R) = resistant)

B1: GN40: lysin obtained from Pseudomonas putida strain PA14H7 (SEQ ID NO: 210) (protein, listed as Micavibrio aeruginosavorus)
chain: MFRPSYILPGVAAVMLLASTAAHAAGYEWKRVDYQYLQSVSEKERGMLRIYKDYEEREPCQNYRELPPEVKYVDCKLYHRVAIPDPPPPPAPPPAPEPPKVVSSYEIFFPLDSTALDLQANAMVDKAAADIALYQPSTVIVAGYTDTSGAADYNDQLSANRAMAVSAALSQRGIPNTAMDLEAHGQNDLKVPTADDVHEPQNRRTVIHFMK
**Q.** What does the source list for B1?
**A.** HEPES (Log10 CFU/mL), 1 hr ([2]; 25 mM HEPES pH 7.4, 1 hr): 7.0 Log10 CFU/mL; HEPES (Log10 CFU/mL), 3 hr ([2]; 25 mM HEPES pH 7.4, 3 hr): 5.7 Log10 CFU/mL; CAA/HuS (Log10 CFU/mL), 1 hr ([2]; CAA + 25% human serum, 1 hr): 6.6 Log10 CFU/mL; CAA/HuS (Log10 CFU/mL), 3 hr ([2]; CAA + 25% human serum, 3 hr): 6.7 Log10 CFU/mL
